Consider 2 compounds from ChEMBL document CHEMBL1148065, “Two new flavones from Calliandra californica” (1994).

Active and inactive are the calls of the source. No cut-off for these calls is given here.

For one test, the system named is Bacillus subtilis. Description: Antimicrobial activity against Bacillus subtilis at 1 mg/disk. It counts as functional.
The test system of a further test is Staphylococcus aureus. Description: Antimicrobial activity against Staphylococcus aureus at 1 mg/disk. Type of test: functional.

In the case of `COc1cc(O)c2c(=O)cc(-c3cc(OC)c(OC)cc3OC)oc2c1`, the “inhibition zone (IZ)” value with Bacillus subtilis is reported as 11 mm; in the test on Staphylococcus aureus, 8 mm.

Turning to `COc1ccc2c(=O)cc(-c3cc(OC)c(OC)cc3OC)oc2c1`, the result with Bacillus subtilis and in the test on Staphylococcus aureus was inactive.
